Assay results from patent publication US9603820B2, “Ornithine aminotransferase inhibition with GABA analogues for treatment of hepatocellular carcinoma” (Northwestern University, priority 2014, dated 2017).
Entries after “also recorded” stand apart in the source; their conditions may differ. Read-outs that look alike come from different tables or passages of the source.

How the values were obtained:
OAT = target: T1, OAT (Homo sapiens, UniProt P04181); details: prior art, FIG. 1; cited from earlier work
T1 sequence (P04181 36-439 limits assumed): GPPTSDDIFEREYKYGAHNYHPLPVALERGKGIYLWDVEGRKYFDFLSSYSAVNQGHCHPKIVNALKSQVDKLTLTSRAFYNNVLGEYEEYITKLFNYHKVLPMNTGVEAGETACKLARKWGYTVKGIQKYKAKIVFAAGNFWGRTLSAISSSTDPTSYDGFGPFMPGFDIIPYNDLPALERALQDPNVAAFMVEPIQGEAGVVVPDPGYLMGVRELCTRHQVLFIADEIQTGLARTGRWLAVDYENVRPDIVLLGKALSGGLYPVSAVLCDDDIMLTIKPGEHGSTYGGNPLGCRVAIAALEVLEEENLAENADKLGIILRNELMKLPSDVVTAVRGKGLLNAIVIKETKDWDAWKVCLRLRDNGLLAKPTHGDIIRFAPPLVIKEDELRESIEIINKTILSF

[1] = tested on: γ-aminobutyric acid aminotransferase (GABA-AT); details: cited from earlier work
[2] = tested on: aspartate aminotransferase; test: Inhibition of aspartate aminotransferase; format: biochemical; details: even at 6 mM concentration
[3] = tested on: Salmonella typhimurium (TA98, TA100, TA1535, and TA1537) and Escherichia coli (WP2uvrA); test: In vitro bacterial reverse mutation assay; details: up to 5000 μg per plate, presence or absence of S9
[4] = 4-week oral (gavage) toxicology/toxicokinetic study in rats
Method: Rats received test article once daily for at least 4 weeks at a dose volume of 10 mL/kg followed by a 4-week recovery period.

GABAA = test: Binding to GABAA
CYP1A2 = details: concentrations up to 100 μM, 3 days
alanine aminotransferase = test: Inhibition of alanine aminotransferase; format: biochemical; details: even at 6 mM concentration
[5] = 4-week oral (gavage) toxicology/toxicokinetic study in dogs
Method: Dogs received test article once daily for at least 4 weeks at a dose volume of 7 mL/kg followed by a 4-week recovery period.
Assessment of toxicity was based on mortality, clinical observations, body weights, body weight gain, food consumption, physical examinations, vital signs (heart rate, respiration, and body temperature), ophthalmology examinations, electrocardiogram examinations, clinical and anatomic pathology, and left eye evaluation.

CYP3A4/5 = test: CYP inhibition in human liver microsomes; format: in vitro ADME; details: 0.1 to 100 μM
[6] = in vivo
Method: Each dose cohort consisted of 8 subjects. […] Subjects were followed for safety for a 30-day period after receiving their single dose of study treatment.
Dose escalation can continue until completion of the 500 mg dose cohort.

[7] = tested on: three human GABA transporters; test: Binding to GABA transporters (summary statement)
GABAC = test: Binding to GABAC
[8] = tested on: Cerep panel of 111 pharmacological targets; test: Cerep panel
[9] = tested on: human peripheral blood lymphocytes (HPBL); test: In vitro mammalian chromosome aberration test; format: cell-based; details: 535, 1070, and 2140 μg/mL, absence and presence of S9
Method: CPP-115 was tested in the in vitro mammalian chromosome aberration test using human peripheral blood lymphocytes (HPBL) in both the absence and presence of an Aroclor-induced rat liver S9 metabolic activation system.

[10] = tested on: γ-aminobutyric acid aminotransferase (GABA-AT); test: Inhibition/inactivation of GABA-AT; format: biochemical
[11] = target: T2, ornithine aminotransferase (OAT) (Homo sapiens, UniProt P04181); test: Continuous coupled OAT assay (PYCR1/NADH), inhibition of OAT; format: biochemical; details: FIG. 2
T2 sequence (P04181 36-439 limits assumed): T1 sequence (P04181 36-439 limits assumed)
From the text: With these two assays in hand, the activity of a variety of compounds made previously as potential inhibitors of GABA-AT were investigated.

[12] = target: T2, ornithine aminotransferase (OAT); test: Time-dependent inactivation of OAT and dialysis of the inactivated enzyme; format: biochemical; details: no activity returned upon dialysis for 48 h
Method: OAT activity assays were carried out using as follows.
OAT incubated without the inactivator serves as a control. After 24 h, the enzyme solutions are transferred to a D-Tube™ Mini dialyzer and exhaustively dialyzed against the buffer (100 mM pyrophosphate buffer containing 0.1 mM alpha-ketoglutarate and 0.1 mM PLP, pH 8.0) at 4° C. protected from light. The dialysis buffer is exchanged three times every 4 h and left overnight. After 48 h of dialysis, the remaining OAT activity in each of the solutions is assayed.
For the determination of KI and kinact values, the natural logarithm of the percentage of remaining OAT activity is plotted against the pre-incubation time at each inhibitor concentration to obtain the kobs (slope) value for each concentration. The kobs is the rate constant describing the inactivation at each inhibitor concentration. kobs is re-plotted against the inhibitor concentration using nonlinear regression analysis (Graph-Pad Prism 6; GraphPad Software Inc.). kinact and the KI were estimated from the equation below: […], where kinact is the maximal rate of inactivation, KI is the inhibitor concentration required for half-maximal inactivation, and [I] is the pre-incubation concentration of inhibitor. […] The initial rate constants for the inactivation at various concentrations of the two compounds are determined using nonlinear regression analysis.

HepG2 = test: Suppression of AFP levels in HCC cells; format: cell-based; details: HepG2, data not shown
Safety of 13 in mice = format: in vivo, C57Bl/6 mice; details: 0.5-5 mg/kg, two doses on days 1 and 4, tested a week later; data not shown
Hep3B cells = test: Alpha-fetoprotein (AFP) secretion in HCC cells; format: cell-based, human
[13] = tested on: hepatocellular carcinoma (HCC); details: HCC patients, cited from earlier work; for response rates: single agent
[14] = rat, in vivo
Method: At the conclusion of dosing, rats entered a wash-out period (5-7 days) after which electroretinograms (ERGs) for scotopic (rod), mesopic (standard combined), photopic (cone), and 10 Hz and 15 Hz3 flicker ERG responses were collected for both eyes from each rat.
Quantitative histological examinations of retinas of the rats from this study were also carried out. Cone receptors were stained with a cone arrestin antibody and counterstained with a red stain for visualization and counting. Retinal sections were also stained with H&E and the ONL nuclei counts and ONL thicknesses were determined.

[15] = tested on: human hepatoma Hep3B cells; test: Effect of gabaculine on HCC growth in vivo; set-up: species or system Athymic Balb/C mice
Method: (§1) Alpha-fetoprotein (AFP) secretion was evaluated as a biomarker for HCC. […] Within seven days of a single dose to HCC-harboring mice, AFP serum levels decreased by 92% in comparison with a 9.7 fold increase in controls (FIG. 5C).
Athymic Balb/C mice were conditioned with sub-lethal radiation (400 cGy). At 24 h after irradiation, animals were injected subcutaneously at the right shoulder with 5×10^6 human hepatoma Hep3B cells. Blood samples were obtained weekly by retrobulbar puncture, and serum was separated and frozen at −20° C. until assayed. On day 45 the mice were divided into two groups (n=8 per treated and controls) and baseline serum AFP was measured. […] Mice in the control group were injected with saline. AFP serum levels, which correlate with tumor growth, were measured on day 52 using a standard Elisa test.

PLC/PRF/5 [16] = test: HCC proliferation, 3H-thymidine assay; format: cell-based; details: PLC/PRF/5, 48 h after exposure to 20 mM gabaculine
PLC/PRF/5 [17] = test: Alpha-fetoprotein (AFP) secretion in HCC cells; format: cell-based
HepA1-6 [18] = test: HCC proliferation, 3H-thymidine assay; format: cell-based; details: HepA1-6, 48 h after exposure to 20 mM gabaculine
HepA1-6 [19] = test: Alpha-fetoprotein (AFP) secretion in HCC cells; format: cell-based
Method: as §1

Hep3B = test: HCC proliferation, 3H-thymidine assay; format: cell-based, human; details: 48 h after exposure to 20 mM gabaculine

C#CC(N)CCC(=O)O (stereo not drawn) [4-aminohex-5-ynoic acid]
inactivation/inhibition of OAT (known compounds) (OAT): also inactivate OAT with equal potency
inactivation/inhibition of GABA-AT (known compounds) ([1]; prior art, FIG. 1): inactivators of GABA-AT

NC(CF)CC[C@H](N)C(=O)O (stereo partly drawn) [5-Fluoromethylornithine]
inactivation/inhibition of OAT (known compounds) (OAT): irreversible inhibitors of OAT

N[C@H]1C[C@@H](C(=O)O)CC1=C(F)F [CPP-115, (1S,3S)-3-amino-4-difluoromethylenyl-1-cyclopentanoic acid]
inhibition of aspartate aminotransferase [2]: does not inhibit
mutagenicity (reverse mutations) [3]: not mutagenic; also recorded: no mutations
increases in Cmax and AUC0-t with dose ([4]; 2, 6, 20 mg/kg/day oral): generally dose proportional
adverse microscopic finding ([4]; 6 or 20 mg/kg/day, dosing and recovery phases): retinal dysplasia
hepatic extraction and tissue distribution ([4]; after oral administration): may not be highly extracted by the liver and may highly distribute to the tissues
accumulation after multiple dosing ([4]; oral once daily, 4 weeks): No accumulation
Human Equivalent Dose [HED] of NOAEL ([4]; rats): 0.96 mg/kg/day
binding to GABAA (GABAA): does not bind
induction of CYP1A2 activity (CYP1A2): not an inducer
inhibition of alanine aminotransferase (alanine aminotransferase): does not inhibit
Human Equivalent Dose [HED] of NOAEL ([5]; dogs): 1.24 mg/kg/day
no-observed-effect-level (NOEL) ([5]; females): 0.7 mg/kg/day
no-observed-effect-level (NOEL) ([5]; males): 2.3 mg/kg/day
direct inhibition of CYP3A4/5 (CYP3A4/5): little or no evidence of direct inhibition
elimination half-life ([6]; human, po): 4 to 6 h
AUCs versus dose [6]: greater than proportional increase
cmax versus dose [6]: increased in a dose proportional manner
time to peak blood concentration ([6]; po): approximately 30 minutes
binding to three human GABA transporters [7]: does not bind
binding to GABAC (GABAC): does not bind
activity in the Cerep panel of 111 pharmacological targets [8]: not active
chromosome aberrations [9]: not elastogenic; also recorded: no mutations or chromosomal aberrations

COc1ccc(CN2C(=O)[C@H]3CC(=C(F)F)[C@@H]2C3)cc1 [Compound 13]
inhibition of GABA-AT ([10]; even at 10 mM concentration): does not inhibit GABA-AT
Ki [11]: 3000 nM
inhibition of / binding to OAT, in words [11]: most potent inhibitor
efficiency/potency as time-dependent irreversible inhibitor (inactivator) of OAT [12]: most efficient
suppression of AFP levels / HCC tumor growth in vitro (HepG2): profound suppression
liver enzymes, weight, behavior, and fur look (Safety of 13 in mice): none of the tested doses were there any notable effects
suppression of AFP levels / HCC tumor growth in vitro (Hep3B cells; Hep3B, data not shown): profound suppression

NC1CC(C(=O)O)CC1=C(Cl)Cl (stereo not drawn) [Compound 18]
binding to GABA-AT [10]: very weak binder
inhibition of / binding to OAT, in words [11]: very weak binder

Cl.N[C@H]1C[C@@H](C(=O)O)C/C1=C\F [Compound 20, (E)-(1S,3S)-3-Amino-4-fluoromethylenyl-1-cyclopentanoic acid, hydrochloride salt]
time-dependent inhibition of GABA-AT [10]: potent time-dependent inhibitors of GABA-AT

Cl.N[C@H]1C[C@@H](C(=O)O)C/C1=C/F [Compound 22, (Z)-(1S,3S)-3-Amino-4-fluoromethylenyl-1-cyclopentanoic acid, hydrochloride salt]
time-dependent inhibition of GABA-AT [10]: potent time-dependent inhibitors of GABA-AT

NCCCC(=O)O [GABA, γ-aminobutyric acid]
inactivation/inhibition of OAT (known compounds) (OAT): competitive inhibitor of OAT

NOCC[C@H](N)C(=O)O [L-canaline]
inactivation/inhibition of OAT (known compounds) (OAT): irreversible inhibitors of OAT

CCCCCOC(=O)Nc1nc(=O)n([C@@H]2O[C@H](C)[C@@H](O)[C@H]2O)cc1F [capecitabine]
response rates in clinical trials [13]: low and short term

N.N.[Cl][Pt][Cl] [cisplatin]
response rates [13]: about 10%

COc1cccc2c1C(=O)c1c(O)c3c(c(O)c1C2=O)C[C@@](O)(C(=O)CO)C[C@@H]3O[C@H]1C[C@H](N)[C@H](O)[C@H](C)O1 [doxorubicin]
response rates [13]: about 10%

O=c1[nH]cc(F)c(=O)[nH]1 [fluorouracil]
response rates [13]: about 10%

Nc1ccn([C@@H]2O[C@H](CO)[C@@H](O)C2(F)F)c(=O)n1 [gemcitabine]
response rates in clinical trials [13]: low and short term

C=CC(N)CCC(=O)O (stereo not drawn) [vigabatrin, Vigabatrin, reference compound]
cone receptor counts [14]: no statistically significant change
inactivation/inhibition of OAT (known compounds) (OAT): does not inactivate OAT

Gabaculine
tumor growth in vivo ([15]; HCC-harboring mice): significantly suppressed tumor growth in vivo
decrease of AFP serum levels ([15]; within seven days of a single dose (500 microgram/kg i.p.)): 92%
suppression of proliferation (PLC/PRF/5 [16]): 46-51%
AFP suppression (PLC/PRF/5 [17]): No significant differences
suppression of proliferation (HepA1-6 [18]): 46-51%
inactivation/inhibition of GABA-AT (known compounds) [1]: inactivators of GABA-AT
AFP suppression (HepA1-6 [19]): No significant differences
suppression of proliferation (Hep3B): 46-51%
decrease of AFP secretion (Hep3B cells; Hep3B cells): 20%
